From US8017809B2, “Bisboron compound” (Japan Science and Technology Agency, priority 2005, dated 2011)
Like-named read-outs stand apart in the source and are kept apart here.

System: capacitative calcium entry (CCE) in IP3 receptor-deficient strain of cell line DT40
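Further: intracellular Ca2+ read as 340/380 nm excitation ratio at 510 nm emission, stores emptied by thapsigargin without external Ca2+, then 2 mM CaCl2 added, inhibition of the ensuing Ca2+ rise.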

Experimental: (Assay of Capacitative Calcium Entry Inhibition)
Its 510 nm fluorescence obtained at 340 nm and 380 nm is measured and the fluorescence ratio F340/380 is measured to determine the intracellular calcium ion concentration. Next, thapsigargin (an endoplasmic reticulum calcium ion pump inhibitor) is allowed to act without calcium ion in an extracellular fluid to deplete an intracellular calcium store. Calcium chloride at a final concentration of 2 mM is added to the extracellular fluid. The IC50 value is calculated by estimating the effect of each compound on the degree of increase in the intracellular calcium concentration at the time of the addition.

Row | Compound | inhibition (1 µM) | inhibition (3 µM) | inhibition (10 µM)
1 | CN(C)CCOB(c1ccccc1)c1ccc(COc2ccc(B(OCCN(C)C)c3ccccc3)cc2)cc1 [Example 110, (4-Phenyl-N,N-dimethylaminoethoxyborylphenyl) 4′-(N,N-dimethylaminoethoxyborylbenzyl) ether] | 20% | 100% | 
2 | c1ccc(B(OCc2ccccn2)c2ccc(COc3ccc(B(OCc4ccccn4)c4ccccc4)cc3)cc2)cc1 [Example 111, (4-Phenyl-2-pyridylmethoxyborylphenyl) (4′-phenyl-2-pyridylmethoxyborylbenzyl) ether] | 20% | 100% | 
3 | c1ccc(B(OCC2CCCN2)c2ccc(COCc3ccc(B(OCC4CCCN4)c4ccccc4)cc3)cc2)cc1 (stereo not drawn) [Example 134, Bis(4,4′-(phenyl-2-pyrrolidinemethoxyboryl)benzyl) ether] | 20% | 100% | 
4 | CCCCNCCOB(c1ccccc1)c1ccc(COCc2ccc(B(OCCNCCCC)c3ccccc3)cc2)cc1 [Example 136, Bis(4,4′-(phenyl-butylaminoethoxyboryl)benzyl) ether] | 30% | 100% | 
5 | NCC(OB(c1ccccc1)c1cccc(COCc2cccc(B(OC(CN)c3ccccc3)c3ccccc3)c2)c1)c1ccccc1 (stereo not drawn) [Example 150, Bis(3,3′-(phenyl-2-amino-1-phenylethoxyboryl)benzyl) ether] | 50% | 100% | 
6 | CNCCOB(c1ccccc1)c1cccc(COCc2cccc(B(OCCNC)c3ccccc3)c2)c1 [Example 151, Bis(3,3′-(phenyl-N-methylethoxyboryl)benzyl) ether] | 60% | 100% | 
7 | CC(CCNCCN)OB(c1ccccc1)c1cccc(COCc2cccc(B(OC(C)CCNCCN)c3ccccc3)c2)c1 (stereo not drawn) [Example 152, Bis(3,3′-(phenyl-N-aminoethyl-1-methyl-3-aminopropoxyboryl)benzyl) ether] | 40% | 80% | 
8 | CCCCNCCB(c1ccccc1)c1cccc(COCc2cccc(B(CCNCCCC)c3ccccc3)c2)c1 [Example 155, Bis(3,3′-(phenyl-N-butylaminoethylboryl)benzyl) ether] | 95% | 100% | 
9 | c1ccc(B(OCc2ccccn2)c2ccc(Oc3ccc(B(OCc4ccccn4)c4ccccc4)cc3)cc2)cc1 [Example 160, Bis(4,4′-(phenyl-2-pyridylmethoxyboryl)phenyl) ether] |  | 0% | 100%
10 | NC(COB(c1ccccc1)c1ccc(COCc2ccc(B(OCC(N)c3ccccc3)c3ccccc3)cc2)cc1)c1ccccc1 (stereo not drawn) [Example 164, Bis(4,4′-(phenyl-2-phenyl-2-amino-ethoxyboryl)benzyl) ether] |  | 100% | 100%
11 | Bis(4,4′-(phenyl-N-methylpiperidine-methoxyboryl)benzyl) ether [Example 139] | 40% | 100% | 
12 | Bis(4,4′-(phenyl-ornithineboryl)phenyl) ether [Example 117] | 80% | 100% | 
